Assay results taken from patent publication US20240041838A1, “METHODS AND COMPOSITIONS FOR INHIBITION OF NEUTROPHIL RECRUITMENT IN MYCOCARDIAL ISCHEMIA-REPERFUSION INJURY” (University of Connecticut, priority 2022, published 2024).

Columns and labels:
[1] = test system: Rac-1 activation in HL60-CXCR2 or HL60 cells; assay: Rac-1-GTP pull-down and western blot in HL60 / HL60-CXCR2 cells; format: cell-based; settings: 10 μM, RT 1 hour
Protocol: The HL60 cells and CXCR2-expressing HL60 cells (HL60-CXCR2)(50) were gifts from Dr. Orion D. Weiner at the University of California San Francisco and Dr. Ann Richmond at the Vanderbilt University School of Medicine, respectively. HL60-CXCR2 cells were selected with G418 ([…]) to maintain CXCR2 expression. Cells were maintained in culture medium (RPMI-1640, 10% FBS, 100 μg·mL^−1 penicillin, 100 μg·mL^−1 streptomycin, and 250 ng·mL^−1 amphotericin B) at 37° C. and 5% CO2. In most experiments, cells were differentiated with 1.3% DMSO for 7 days before assays. Cells were checked monthly for mycoplasma infection using the e-Myco plus Mycoplasma PCR Detection Kit.
After washes, cells were resuspended in RPMI-1640 without phenol red (10^7 cells·mL^−1) and incubated with or without stimulators (100 nM fMLP for HL60, 1 μg·mL^−1 IL-8 for HL60-CXCR2) at RT for 1 minute. Cells were lysed by 1:1 addition of 2× Triton X-100 lysis buffer (final concentration: 1% Triton X-100, 50 mM HEPES pH 7.0, 150 mM NaCl, 10% glycerol, 1.5 mM MgCl2, 1 mM EGTA, 1 mM sodium orthovanadate, 1 mM phenylmethylsulfonyl fluoride, plus protease inhibitor mixture—one Pierce protease inhibitor mini-tablet per 5 mL 2× buffer) on ice for 5 minutes. After centrifuging at 16,000×g, 4° C. for 8 minutes, supernatants were saved as protein samples.

[2] = test system: mouse myocardial I/R injury; assay: neutrophil recruitment in mouse myocardial I/R injury (multi-photon microscopy, flow cytometry); format: in vivo; settings: I/R 35/60 minutes
Source text: C57BL/6J wild-type mice (000664; JAX) were originally obtained from the Jackson Laboratory. LysM-EGFP or Lyz2-EGFP mice were originally obtained from Albert Einstein College of Medicine through a material transfer agreement. Mice were fed a standard rodent chow diet and were housed in microisolator cages in a pathogen-free facility in the Center for Comparative Medicine at UConn Health. All experiments followed the UConn Health Institutional Animal Care and Use Committee (IACUC) guidelines, and approval for the use of rodents was obtained from the UConn Health IACUC according to criteria outlined in the Guide for the Care and Use of Laboratory Animals from the National Institutes of Health. Both male and female mice aged from 12 to 16 weeks were used in the experiments.
Mice were subjected to 35 minutes of myocardial ischemia and 1 (for multi-photon microscopy and flow cytometry) or 22-26 (for TTC-phthalo-blue staining) hours of reperfusion. […] Briefly, anesthesia was induced with an intraperitoneal injection of ketamine hydrochloride (125 mg·kg^−1) and xylazine (12.5 mg·kg^−1). Mice were intubated with 24G×3/4″ Surflo i.v. catheter and ventilated using MiniVent 845 (Harvard Apparatus).
Surgeries were performed under an SMZ168 Stereo Zoom microscope (Motic). Ischemia was achieved by ligating the left anterior descending coronary artery (LAD) using a 6-0 silk suture with a section of PE-10 tubing placed over the LAD, 1 mm from the tip of the normally positioned left atrium. One important problem in drug administration is water solubility, which greatly affects drug absorption and bioavailability. […] In clinics, the primary percutaneous coronary intervention aims to be performed less than 90 min (within 60 min is preferable) after the patient arrives. […] After occlusion for 35 minutes, reperfusion was initiated by releasing the ligature and removing the PE-10 tubing. The chest wall was closed, the animal extubated, and body temperature was maintained by use of a 37° C. warm pad. Hearts were harvested 1 or 22-26 hours later. The loosened suture was left in place and then retied for the purpose of evaluating the ischemic area. Sham control and no drug administered control were performed as well.
To assess the neutrophil recruitment in myocardial I/R injury, LysM-EGFP mice underwent 35 minutes of ischemia and 1 hour of reperfusion. […] After being fixed with 1% PFA and washes with ice-cold PBS, cell fluorescence was assessed with an LSRII (BD Biosciences, San Jose, CA) and analyzed with FlowJo software (version 10.6). […]

human neutrophils = settings: 1 and 4 hours of incubation; previous study; cited from earlier work

## CC(C)(C)C(=O)/C(=C\c1cccc([N+](=O)[O-])c1)n1cncn1 [Nexinhib20, 4,4-dimethyl-1-(3-nitrophenyl)-2-(1H-1,2,4-triazol-1-yl)-1-penten-3-one]
[1]; HL60-CXCR2 cells, IL-8 1 μg·mL^−1, 1 minute, increase about 80% without drug
  IL-8-induced increase of Rac-1-GTP: eliminated these increases
[1]; HL60 cells, fMLP 100 nM, 1 minute, increase about 50% without drug
  fMLP-induced increase of Rac-1-GTP: eliminated these increases
[2]; 1 μmol per mouse i.p.
  neutrophils retained in the blood circulation compared to vehicle controls: doubled
[2]; 1 μmol per mouse i.p., vehicle about 50%
  percentage of neutrophils in heart leukocytes: about 30%
[2]; 1 μmol per mouse i.p., vehicle about 6000
  heart neutrophil counts (CD45^+Ly6G^+): about 2000
[2]; LysM-EGFP mice, 1 μmol per mouse i.p. 30 minutes before reperfusion
  LysM-GFP^+ leukocyte recruitment to the coronary artery (EGFP fluorescence): significantly limited
Human neutrophils
  cell death compared to DMSO vehicle controls: did not induce a significant increase in cell death
